The text below walks through data of patent US20020086862A1, “Novel compounds” (AstraZeneca AB, priority 1998, published 2002).

As usually defined, the melting point is the temperature, or range, at which the solid turns liquid.

As for `COC(=O)c1ccccc1-c1nn(Cc2ccccc2)c(=S)[nH]1` [Example 2, 2-[1,2-Dihydro-1-(phenylmethyl)-5-thioxo-3H-1,2,4-triazol-3-yl]benzoic acid, methyl ester], the melting point lay in the range of 129 to 130 °C.
Compound `COC(=O)c1ccc(-c2nn(Cc3ccccc3)c(=S)[nH]2)cc1` [Example 3, 4-[1,2-Dihydro-1-(phenylmethyl)-5-thioxo-3H-1,2,4-triazol-3-yl]benzoic acid, methyl ester] gave a melting point above 215 °C.
Regarding `S=c1[nH]c(-c2ccc(Cl)s2)nn1Cc1ccccc1` [Example 4, 5-(5-Chloro-2-thienyl)-1,2-dihydro-2-(phenylmethyl)-3H-1,2,4-triazole-3-thione], the melting point fell in the range of 79 to 80 °C.
The result for `S=c1[nH]c(-c2cccc(Cl)c2)nn1Cc1ccccc1` [Example 5, 5-(3-Chlorophenyl)-1,2-dihydro-2-(phenylmethyl)-3H-1,2,4-triazole-3-thione] reads 175 to 176 °C; that for `O=[N+]([O-])c1ccccc1-c1nn(Cc2ccccc2)c(=S)[nH]1` [Example 6, 1,2-Dihydro-5-(2-nitrophenyl)-2-(phenylmethyl)-3H-1,2,4-triazole-3-thione], 147 to 148 °C.
`N#Cc1ccc(-c2nn(Cc3ccccc3)c(=S)[nH]2)cc1` [Example 7, 5-(4-Cyanophenyl)-1,2-dihydro-2-(phenylmethyl)-3H-1,2,4-triazole-3-thione]: the melting point lay within 237 to 238 °C.
The result for `S=c1[nH]c(-c2cccc(Cl)c2Cl)nn1Cc1ccccc1` [Example 8, 5-(2,3-Dichlorophenyl)-1,2-dihydro-2-(phenylmethyl)-3H-1,2,4-triazole-3-thione] reads 179 to 180 °C; that for `S=c1[nH]c(-c2ccccc2Br)nn1Cc1ccccc1` [Example 9, 5-(2-Bromophenyl)-1,2-dihydro-2-(phenylmethyl)-3H-1,2,4-triazole-3-thione], 139 to 140 °C; that for `FC(F)(F)c1cccc(-c2nn(Cc3ccccc3)c(=S)[nH]2)c1` [Example 10, 1,2-Dihydro-2-(phenylmethyl)-5-[3-(trifluoromethyl)phenyl]-3H-1,2,4-triazole-3-thione], 209 to 210 °C.
The result for `S=c1[nH]c(-c2ccco2)nn1Cc1ccccc1` [Example 11, 5-(2-Furanyl)-1,2-dihydro-2-(phenylmethyl)-3H-1,2,4-triazole-3-thione] reads 212 to 213 °C.
The result for `COc1ccc(Br)c(-c2nn(Cc3ccccc3)c(=S)[nH]2)c1` [Example 12, 5-(2-Bromo-5-methoxyphenyl)-1,2-dihydro-2-(phenylmethyl)-3H-1,2,4-triazole-3-thione] reads 154 to 155 °C; that for `S=c1[nH]c(-c2cc(Cl)sc2Cl)nn1Cc1ccccc1` [Example 13, 5-(2,5-Dichloro-3-thienyl)-1,2-dihydro-2-(phenylmethyl)-3H-1,2,4-triazole-3-thione], 160 to 162 °C; that for `S=c1[nH]c(-c2ccncc2)nn1Cc1ccccc1` [Example 14, 1,2-Dihydro-2-(phenylmethyl)-5-(4-pyridinyl)-3H-1,2,4-triazole-3-thione], 160 to 162 °C.
Regarding `S=c1[nH]c(-c2ccc(-c3ccccc3)cc2)nn1Cc1ccccc1` [Example 15, 1,2-Dihydro-2-(phenylmethyl)-5-(4-phenylphenyl)-3H-1,2,4-triazole-3-thione], the melting point is 249 to 250 °C.
Under `S=c1[nH]c(-c2cccnc2Cl)nn1Cc1ccccc1` [Example 16, 5-(2-Chloro-3-pyridinyl)-1,2-dihydro-2-(phenylmethyl)-3H-1,2,4-triazole-3-thione] stands 155 to 156 °C; under `Fc1ccccc1-c1nn(Cc2ccccc2)c(=S)[nH]1` [Example 17, 5-(2-Fluorophenyl)-1,2-dihydro-2-(phenylmethyl)-3H-1,2,4-triazole-3-thione], 180 to 183 °C.
`COc1ccccc1-c1nn(Cc2ccccc2)c(=S)[nH]1` [Example 18, 1,2-Dihydro-5-(2-methoxyphenyl)-2-(phenylmethyl)-3H-1,2,4-triazole-3-thione] came in with a melting point of 142 to 143.5 °C.
The result for `Cc1ccccc1-c1nn(Cc2ccccc2)c(=S)[nH]1` [Example 19, 1,2-Dihydro-5-(2-methylphenyl)-2-(phenylmethyl)-3H-1,2,4-triazole-3-thione] reads 150 to 153 °C; that for `FC(F)(F)c1ccc(-c2nn(Cc3ccccc3)c(=S)[nH]2)cc1` [Example 21, 1,2-Dihydro-2-(phenylmethyl)-5-[4-(trifluoromethyl)phenyl]-3H-1,2,4-triazole-3-thione], 201 to 203 °C.
The compound `Fc1ccc(-c2nn(Cc3ccccc3)c(=S)[nH]2)c(Cl)c1` [Example 22, 5-(2-Chloro-4-fluorophenyl)-1,2-dihydro-2-(phenylmethyl)-3H-1,2,4-triazole-3-thione] returned a melting point of 135 to 136 °C.
Under `COc1ccc(-c2nn(Cc3ccccc3)c(=S)[nH]2)cc1` [Example 23, 1,2-Dihydro-5-(4-methoxyphenyl)-2-(phenylmethyl)-3H-1,2,4-triazole-3-thione] stands 235 to 237 °C; under `Cc1ccc(-c2nn(Cc3ccccc3)c(=S)[nH]2)cc1` [Example 24, 1,2-Dihydro-5-(4-methylphenyl)-2-(phenylmethyl)-3H-1,2,4-triazole-3-thione], 234 to 235 °C.
In the case of `S=c1[nH]c(-c2ccc(Cl)c(Cl)c2)nn1Cc1ccccc1` [Example 25, 5-(3,4-Dichlorophenyl)-1,2-dihydro-2-(phenylmethyl)-3H-1,2,4-triazole-3-thione], the melting point was 227 to 228 °C.
The compound `S=c1[nH]c(-c2ccc(Br)cc2)nn1Cc1ccccc1` [Example 26, 5-(4-Bromophenyl)-1,2-dihydro-2-(phenylmethyl)-3H-1,2,4-triazole-3-thione] came in with a melting point of 250 to 251 °C.
The result for `S=c1[nH]c(-c2ccc(Cl)cc2Cl)nn1Cc1ccccc1` [Example 27, 5-(2,4-Dichlorophenyl)-1,2-dihydro-2-(phenylmethyl)-3H-1,2,4-triazole-3-thione] reads 169 to 170 °C; that for `S=c1[nH]c(-c2cc(Cl)cc(Cl)c2)nn1Cc1ccccc1` [Example 29, 5-(3,5-Dichlorophenyl)-1,2-dihydro-2-(phenylmethyl)-3H-1,2,4-triazole-3-thione], 205 to 212 °C; that for `S=c1[nH]c(-c2cccc(Oc3ccccc3)c2)nn1Cc1ccccc1` [Example 30, 1,2-Dihydro-5-(3-phenoxyphenyl)-2-(phenylmethyl)-3H-1,2,4-triazole-3-thione], 200 to 202 °C.
Under `S=c1[nH]c(-c2cccs2)nn1Cc1ccccc1` [Example 31, 1,2-Dihydro-2-(phenylmethyl)-5-(2-thienyl)-3H-1,2,4-triazole-3-thione] stands 230 to 231 °C; under `S=c1[nH]c(-c2ccc(Cl)cc2Cl)nn1Cc1cccc(Cl)c1` [Example 32, 2-[(3-Chlorophenyl)methyl]-5-(2,4-dichlorophenyl)-1,2-dihydro-3H-1,2,4-triazole-3-thione], 190 to 191 °C.
The result for `COc1cccc(Cn2nc(-c3ccc(Cl)cc3Cl)[nH]c2=S)c1` [Example 33, 5-(2,4-Dichlorophenyl)-1,2-dihydro-2-[(3-methoxyphenyl)methyl]-3H-1,2,4-triazole-3-thione] reads 173 to 174 °C; that for `S=c1[nH]c(-c2ccc(Cl)cc2Cl)nn1Cc1cccc(Oc2ccccc2)c1` [Example 34, 5-(2,4-Dichlorophenyl)-1,2-dihydro-2-[(3-phenoxyphenyl)methyl]-3H-1,2,4-triazole-3-thione], 180 to 181 °C.
Take `Oc1cccc(Cn2nc(-c3ccccc3)[nH]c2=S)c1` [Example 35, 1,2-Dihydro-2-[(3-hydroxyphenyl)methyl]-5-phenyl-3H-1,2,4-triazole-3-thione]: the melting point was 233 to 235 °C.
Turning to `CSc1ccccc1-c1nn(Cc2ccccc2)c(=S)[nH]1` [Example 38, 1,2-Dihydro-5-[2-(methylthio)phenyl]-2-(phenylmethyl)-3H-1,2,4-triazole-3-thione], the melting point lay within 170 to 171 °C.
In turn, `S=c1[nH]c(-c2ccccc2Oc2ccccc2)nn1Cc1ccccc1` [Example 39, 1,2-Dihydro-5-[2-(phenoxy)phenyl]-2-(phenylmethyl)-3H-1,2,4-triazole-3-thione] yielded a melting point of 158 to 159 °C.
As for `O=C(c1ccccc1)c1cccc(-c2nn(Cc3ccccc3)c(=S)[nH]2)c1` [Example 40, 1,2-Dihydro-5-(3-(phenylcarbonyl)phenyl)-2-(phenylmethyl)-3H-1,2,4-triazole-3-thione], the melting point is 154 to 155 °C.
In the case of `S=c1[nH]c(-c2ccc3ccccc3c2Br)nn1Cc1ccccc1` [Example 41, 1,2-Dihydro-5-(1-bromo-2-naphthalenyl)-2-(phenylmethyl)-3H-1,2,4-triazole-3-thione], the melting point was in the range of 168 to 170 °C.
For `S=c1[nH]c(-c2ccccc2Cl)nn1Cc1cccc(Cl)c1` [Example 42, 5-(2-Chlorophenyl)-2-[(3-chlorophenyl)methyl]-1,2-dihydro-3H-1,2,4-triazole-3-thione], the melting point was 143 to 143.5 °C.
The result for `Cc1cccc(Cn2nc(-c3ccc(Cl)cc3Cl)[nH]c2=S)c1` [Example 43, 5-(2,4-Dichlorophenyl)-1,2-dihydro-2-[(3-methylphenyl)methyl]-3H-1,2,4-triazole-3-thione] reads 177 to 178 °C.
For `S=c1[nH]c(-c2ccc(Cl)cc2Cl)nn1CCc1ccccc1` [Example 44, 5-(2,4-Dichlorophenyl)-1,2-dihydro-2-(2-phenylethyl)-3H-1,2,4-triazole-3-thione], the melting point is 179 to 182 °C.
Under `S=c1[nH]c(-c2ccc(Cl)cc2Cl)nn1Cc1ccc(Cl)cc1` [Example 45, 2-[(4-Chlorophenyl)methyl]-5-(2,4-dichlorophenyl)-1,2-dihydro-3H-1,2,4-triazole-3-thione] stands 205 to 206 °C; under `S=c1[nH]c(-c2ccc(Br)cc2)nn1Cc1cccc(Cl)c1` [Example 46, 5-(4-Bromophenyl)-2-[(3-chlorophenyl)methyl]-1,2-dihydro-3H-1,2,4-triazole-3-thione], 242 to 243 °C.
